Reference: the NIST ThermoML archive (doi:10.1021/je200508x)

Test: molar heat capacity at constant pressure
Settings: 101.33 kPa, Crystal, Vacuum adiabatic calorimetry

C=C(C)C(=O)[O][Sb]([O]C(=O)C(=C)C)([c]1ccccc1)([c]1ccccc1)[c]1ccccc1 [triphenyl-.lambda.5-stibanediyl bis(2-methylacrylate)]
Settings	molar heat capacity at constant pressure [J/K/mol]
5 K	2.01
5.69 K	2.9
6.38 K	4.02
7.1 K	5.41
7.71 K	6.68
8.27 K	7.96
8.8 K	9.25
9.02 K	9.78
9.38 K	10.7
9.91 K	12
10 K	12.3
10.45 K	13.4
10.84 K	14.3
11.3 K	15.5
11.73 K	16.5
12.1 K	17.4
13.05 K	19.9
13.67 K	21.6
14.66 K	24.5
15 K	25.4
15.64 K	27.4
16.62 K	30.16
17.59 K	33.15
18.52 K	36.15
19.07 K	37.69
19.58 K	39.2
20 K	40.48
21.68 K	45.73
24.61 K	55.52
25 K	56.85
26.89 K	62.82
28.78 K	68.55
30 K	72.23
31.21 K	75.9
31.81 K	78.04
33.66 K	83.66
33.76 K	84.46
35 K	88.24
36.21 K	92.11
38.67 K	99.54
40 K	103.4
41.14 K	106.6
43.6 K	113.8
45 K	117.5
46.06 K	120.5
48.52 K	127.2
50 K	131.7
50.62 K	133.3
52.35 K	138.3
56.62 K	149.3
57.11 K	150.1
59.23 K	155.6
60 K	157.4
61.69 K	161.4
64.15 K	167.4
66.61 K	173.5
68.65 K	178.9
70 K	181.9
70.8 K	183.9
73.27 K	189.7
75.28 K	193.9
77.44 K	199
79.9 K	204.6
80 K	204.8
82.19 K	210
84.03 K	214.2
84.36 K	214.5
86.03 K	217.9
86.44 K	219.2
88.12 K	222.6
88.53 K	223.9
90 K	226.3
90.24 K	227.1
90.62 K	227.4
92.99 K	232
95.37 K	236.4
97.74 K	240.6
100 K	245.1
100.11 K	245.2
102.48 K	250
104.85 K	254
107.22 K	258.4
109.45 K	262.8
110 K	263.4
111.82 K	266.7
114.3 K	271.1
116.58 K	275.1
118.96 K	279
120 K	280.8
121.34 K	283
123.72 K	286.8
126.1 K	290.5
128.48 K	294.9
130 K	297.4
130.59 K	298.4
132.7 K	302.2
135.08 K	306.4
139.6 K	313.7
140 K	314.6
141.3 K	316.8
143.4 K	321
145.22 K	324.6
147.6 K	328.9
149.99 K	333.6
150 K	333.6
152.36 K	347.2
154.75 K	352.6
157.14 K	362.4
159.53 K	372.2
160 K	372.6
161.92 K	369.5
164.34 K	355.3
166.76 K	356.4
169.15 K	360
170 K	361.2
171.6 K	363.4
173.9 K	366.7
175.85 K	369.5
178.25 K	372.5
180 K	375.2
180.65 K	376.2
183.05 K	379.6
184.24 K	380.9
187.35 K	385.8
190 K	389.6
190.9 K	391.1
194.06 K	395.5
197.17 K	400.2
200 K	404.7
200.73 K	406
204.87 K	412.6
209.58 K	420
210 K	420.5
214.29 K	427
218.98 K	434.2
220 K	436.3
223.67 K	442.1
228.35 K	449.1
230 K	451.7
232.58 K	456.1
236.01 K	461
240 K	466.6
240.06 K	466.4
244.71 K	473.3
249.36 K	480
250 K	481.2
252.66 K	484.9
256.66 K	491.7
260 K	496.3
261.29 K	497.9
265.91 K	505.5
270 K	511.1
270.5 K	511.7
275.08 K	518.7
277.79 K	522.4
280 K	525.9
281.19 K	527.2
284.56 K	532.8
287.93 K	538.8
290 K	541.9
291.28 K	544
294.6 K	550.2
297.91 K	555.7
298.15 K	555.9
300 K	559.1
301.2 K	561.8
304.48 K	566.7
307.74 K	572.1
310 K	576.3
310.99 K	577.4
314.22 K	583.3
317.43 K	588.2
320 K	592
320.63 K	592.8
323.81 K	597.8
327.25 K	602.8
330 K	607
330.43 K	607
332.9 K	611.4
334.78 K	614.7
340 K	621
350 K	635
360 K	649
370 K	664
380 K	679
390 K	694
400 K	709
